Results on seven compounds are retold here after patent US6307080A, “Water-soluble zinc pyruvates or their hydrates, method for the product ion thereof and their use” (SKW Trostberg Aktiengesellschaft, priority 1998, dated 2001).

Usually IC50 stands for the midpoint of a concentration-inhibition curve.

The test system of data set [1] is influenza A/Chile/1/83 or influenza B/Singapore/27/79 (viral hemagglutination of erythrocytes). Kind of data set: Inhibition of influenza-induced viral hemagglutination (vHAI) of erythrocytes (RBC). The class given is cell-based, influenza A and influenza B viruses. The note with it: Table 1; for IC50: read-out: HAI IC50.
For data set [2], the system named is influenza A/Chile/1/83 or influenza B/Singapore/27/79 in MDCK cells. Format: cell-based, influenza A and influenza B viruses. The note with it: Table 1; for Plaque (plaque reduction assay): concentration in plaque reduction assay, MDCK cells, 30 min treatment; for Plaque Reduction: percentage reduction in number of plaque per unit volume (well), 30 min. On the technique in general: Plaques are areas of infected cells; plaque reduction assays count them against a control.

A short description of another data set: Solubility. Format: physicochemical. The note with it: product of Berzelius's instructions, identified as zinc parapyruvate.
The subject of the next data set is type II diabetics. Conditions: cited from earlier work.
Data set [3] relates to macrophages. The data set can be described thus: Inhibition of superoxide (HO2) release from activated macrophages (cytochrome C reduction). The note with it: in words. The class given is cell-based.
Data set [4] deals with macrophages. The data set can be described thus: Binding/association of zinc pyruvate to macrophages (equilibrium dialysis). Background: In equilibrium dialysis only unbound substance equilibrates across the membrane.

Consider `CC(=O)[O-].CC(=O)[O-].[Zn+2]` [Zn(Ac)2], for which, in data set [1], the “Potency HAI” value was determined as 6.0 and the IC50 turned out to be 150 µM. Moreover, in data set [2], the “Plaque (plaque reduction assay)” value worked out at 1700 µM and the “Plaque Reduction” value stood at 15%.
The matching figures for `[Cl-].[Cl-].[Zn+2]` [ZnCl2]: 5.0, 100 µM, 1200 µM and 20%.
Turning to `O.[O]=[Zn]` [ZnO.H2 O], the “Potency HAI” value in data set [1] was 4.5. In data set [2], the “Plaque (plaque reduction assay)” value stood at 1700 µM and the “Plaque Reduction” value turned out to be 15%.
In the case of `[O]=[Zn]` [ZnO.H2 O], the IC50 in data set [1] was around 200 µM.
For `CC(O)(CC(=O)C(=O)[O-])C(=O)[O-].[Zn+2]` (centres unmarked) [zinc parapyruvate], in “Solubility”, the solubility result is recorded as “sparingly soluble”.
With `[Zn]` [zinc], the “average fasting blood sugar” value in the data set on type II diabetics (after administration of zinc for 6 weeks, decrease from 250, Perger and coworkers) is 142 mg %. The “fasting and postprandial blood sugar level” value in the data set with type II diabetics (other studies, zinc administration) is listed as “decreases markedly”.
Regarding zinc pyruvate, the “inhibitory effect on the release of HO2 (respiratory burst activity)” value with macrophages [3] was “regulatory and in part inhibitory effect”. For the same compound, in data set [1], the “Potency HAI” value came out at 19.9 and the IC50 worked out at 25.3 µM. Further, the “lysis of RBC cells begins at” value with erythrocytes (RBC) is 1000 µg/mL. Besides, in data set [2], the “Plaque (plaque reduction assay)” value was found to be 90.5 µM and the “Plaque Reduction” value is listed as 67%. Also, at macrophages [4] (macrophages, cell count of 10^5, read-out: binding constant determined by equilibrium dialysis), the binding constant was found to be 150 nM. Moreover, the “association constant of zinc pyruvate to the macrophages” value on macrophages [4] (under these in-vitro conditions) stood at 150 nM.
